Numbers after ± are expanded uncertainties.
Columns and labels:
[1] = 101.33 kPa, Liquid; for viscosity: Concentric cylinders viscometry; for mass density: Vibrating tube method
[2] = refractive index (Na D-line) (dimensionless); settings: 101.33 kPa, Liquid, Standard Abbe refractometry

In the case of `CCCCCC[n+]1ccn(C)c1.O=S(=O)([N-]S(=O)(=O)C(F)(F)F)C(F)(F)F`, the viscosity ([1]; 298.15 K) is reported as 68.54 ± 1.6 mPa·s, the mass density ([1]; 298.15 K) is reported as 1370.8 ± 1.8 kg/m3 and the refractive index ([2]; 298.15 K) is reported as 1.4318 ± 0.00051.
`CCCC[n+]1ccccc1.O=S(=O)([N-]S(=O)(=O)C(F)(F)F)C(F)(F)F` [1-butylpyridinium bis[(trifluoromethyl)sulfonyl]imide] showed a viscosity ([1]; 293.15 K) of 76.16 ± 1.8 mPa·s, a mass density ([1]; 293.15 K) of 1452.5 ± 2 kg/m3 and a viscosity ([1]; 298.15 K) of 60.41 ± 1.4 mPa·s. It also gave a mass density ([1]; 298.15 K) of 1447.6 ± 2 kg/m3, a viscosity ([1]; 303.15 K) of 48.55 ± 1.1 mPa·s and a mass density ([1]; 303.15 K) of 1442.9 ± 2 kg/m3. For the same molecule, the viscosity ([1]; 308.15 K) was 39.65 ± 0.9 mPa·s, the mass density ([1]; 308.15 K) was 1438.3 ± 2 kg/m3 and the viscosity ([1]; 313.15 K) was 32.83 ± 0.74 mPa·s. For the same molecule, the mass density ([1]; 313.15 K) was 1433.6 ± 2 kg/m3, the viscosity ([1]; 318.15 K) was 27.56 ± 0.62 mPa·s and the mass density ([1]; 318.15 K) was 1429 ± 2 kg/m3. It also gave a viscosity ([1]; 323.15 K) of 23.4 ± 0.53 mPa·s, a mass density ([1]; 323.15 K) of 1424.3 ± 2 kg/m3 and a viscosity ([1]; 328.15 K) of 20.08 ± 0.45 mPa·s. The mass density ([1]; 328.15 K) was 1419.7 ± 1.9 kg/m3, the viscosity ([1]; 333.15 K) was 17.4 ± 0.39 mPa·s and the mass density ([1]; 333.15 K) was 1415.1 ± 1.9 kg/m3. It also gave a viscosity ([1]; 338.15 K) of 15.2 ± 0.34 mPa·s, a mass density ([1]; 338.15 K) of 1410.5 ± 1.9 kg/m3 and a viscosity ([1]; 343.15 K) of 13.39 ± 0.3 mPa·s. It also gave a mass density ([1]; 343.15 K) of 1406 ± 1.9 kg/m3, a viscosity ([1]; 348.15 K) of 11.87 ± 0.27 mPa·s and a mass density ([1]; 348.15 K) of 1401.5 ± 1.9 kg/m3. It also gave a viscosity ([1]; 353.15 K) of 10.59 ± 0.24 mPa·s, a mass density ([1]; 353.15 K) of 1397 ± 1.9 kg/m3 and a refractive index ([2]; 293.15 K) of 1.44537 ± 0.0006. For the same molecule, the refractive index ([2]; 298.15 K) was 1.44379 ± 0.0006, the refractive index ([2]; 303.15 K) was 1.44211 ± 0.0006 and the refractive index ([2]; 308.15 K) was 1.44057 ± 0.00059. It also gave a refractive index ([2]; 313.15 K) of 1.43911 ± 0.00058, a refractive index ([2]; 318.15 K) of 1.43769 ± 0.00058 and a refractive index ([2]; 323.15 K) of 1.43631 ± 0.00057. For the same molecule, the refractive index ([2]; 328.15 K) was 1.43496 ± 0.00057 and the refractive index ([2]; 333.15 K) was 1.43359 ± 0.00058.
`CCCCCCCCCC[n+]1ccccc1.O=S(=O)([N-]S(=O)(=O)C(F)(F)F)C(F)(F)F` [1-decylpyridinium bis(trifluoromethylsulfonyl)imide] gave a viscosity ([1]; 293.15 K) of 201.44 ± 5.7 mPa·s, a mass density ([1]; 293.15 K) of 1287.8 ± 1.7 kg/m3 and a viscosity ([1]; 298.15 K) of 151.93 ± 4 mPa·s. It also gave a mass density ([1]; 298.15 K) of 1283.5 ± 1.7 kg/m3, a viscosity ([1]; 303.15 K) of 116.39 ± 2.9 mPa·s and a mass density ([1]; 303.15 K) of 1279.2 ± 1.7 kg/m3. The viscosity ([1]; 308.15 K) was 90.82 ± 2.1 mPa·s, the mass density ([1]; 308.15 K) was 1275.1 ± 1.7 kg/m3 and the viscosity ([1]; 313.15 K) was 72.07 ± 1.6 mPa·s. It also gave a mass density ([1]; 313.15 K) of 1270.9 ± 1.7 kg/m3, a viscosity ([1]; 318.15 K) of 58.06 ± 1.3 mPa·s and a mass density ([1]; 318.15 K) of 1266.8 ± 1.6 kg/m3. The viscosity ([1]; 323.15 K) was 47.46 ± 1.1 mPa·s, the mass density ([1]; 323.15 K) was 1262.6 ± 1.6 kg/m3 and the viscosity ([1]; 328.15 K) was 39.29 ± 0.89 mPa·s. The mass density ([1]; 328.15 K) was 1258.5 ± 1.6 kg/m3, the viscosity ([1]; 333.15 K) was 32.91 ± 0.74 mPa·s and the mass density ([1]; 333.15 K) was 1254.3 ± 1.6 kg/m3. The viscosity ([1]; 338.15 K) was 27.86 ± 0.63 mPa·s, the mass density ([1]; 338.15 K) was 1250.2 ± 1.6 kg/m3 and the viscosity ([1]; 343.15 K) was 23.81 ± 0.54 mPa·s. For the same molecule, the mass density ([1]; 343.15 K) was 1246.1 ± 1.6 kg/m3, the viscosity ([1]; 348.15 K) was 20.54 ± 0.46 mPa·s and the mass density ([1]; 348.15 K) was 1242 ± 1.6 kg/m3. The viscosity ([1]; 353.15 K) was 17.85 ± 0.4 mPa·s, the mass density ([1]; 353.15 K) was 1237.9 ± 1.6 kg/m3 and the refractive index ([2]; 293.15 K) was 1.45007 ± 0.00059. The refractive index ([2]; 298.15 K) was 1.44859 ± 0.00059, the refractive index ([2]; 303.15 K) was 1.44703 ± 0.00059 and the refractive index ([2]; 308.15 K) was 1.44546 ± 0.00059. For the same molecule, the refractive index ([2]; 313.15 K) was 1.44391 ± 0.00059, the refractive index ([2]; 318.15 K) was 1.44239 ± 0.00059 and the refractive index ([2]; 323.15 K) was 1.44091 ± 0.00059. The refractive index ([2]; 328.15 K) was 1.43943 ± 0.00059 and the refractive index ([2]; 333.15 K) was 1.43796 ± 0.00059.
With `CCCCCCCCCCCC[n+]1ccccc1.O=S(=O)([N-]S(=O)(=O)C(F)(F)F)C(F)(F)F` [1-dodecylpyridinium bis(trifluoromethylsulfonyl)imide] the viscosity ([1]; 293.15 K) was 269.72 ± 8.3 mPa·s, the mass density ([1]; 293.15 K) was 1253.1 ± 1.6 kg/m3 and the viscosity ([1]; 298.15 K) was 200.45 ± 5.7 mPa·s. It also gave a mass density ([1]; 298.15 K) of 1248.8 ± 1.6 kg/m3, a viscosity ([1]; 303.15 K) of 151.42 ± 4 mPa·s and a mass density ([1]; 303.15 K) of 1244.6 ± 1.6 kg/m3. It also gave a viscosity ([1]; 308.15 K) of 116.63 ± 2.9 mPa·s, a mass density ([1]; 308.15 K) of 1240.5 ± 1.6 kg/m3 and a viscosity ([1]; 313.15 K) of 91.45 ± 2.2 mPa·s. For the same molecule, the mass density ([1]; 313.15 K) was 1236.4 ± 1.6 kg/m3, the viscosity ([1]; 318.15 K) was 72.83 ± 1.7 mPa·s and the mass density ([1]; 318.15 K) was 1232.3 ± 1.6 kg/m3. For the same molecule, the viscosity ([1]; 323.15 K) was 58.88 ± 1.3 mPa·s, the mass density ([1]; 323.15 K) was 1228.2 ± 1.6 kg/m3 and the viscosity ([1]; 328.15 K) was 48.25 ± 1.1 mPa·s. For the same molecule, the mass density ([1]; 328.15 K) was 1224.1 ± 1.6 kg/m3, the viscosity ([1]; 333.15 K) was 40.02 ± 0.9 mPa·s and the mass density ([1]; 333.15 K) was 1220.1 ± 1.6 kg/m3. It also gave a viscosity ([1]; 338.15 K) of 33.59 ± 0.76 mPa·s, a mass density ([1]; 338.15 K) of 1216 ± 1.6 kg/m3 and a viscosity ([1]; 343.15 K) of 28.47 ± 0.64 mPa·s. The mass density ([1]; 343.15 K) was 1212 ± 1.6 kg/m3, the viscosity ([1]; 348.15 K) was 24.36 ± 0.55 mPa·s and the mass density ([1]; 348.15 K) was 1208 ± 1.5 kg/m3. For the same molecule, the viscosity ([1]; 353.15 K) was 21.03 ± 0.48 mPa·s, the mass density ([1]; 353.15 K) was 1204 ± 1.5 kg/m3 and the refractive index ([2]; 293.15 K) was 1.45131 ± 0.0006. The refractive index ([2]; 298.15 K) was 1.44969 ± 0.00059, the refractive index ([2]; 303.15 K) was 1.44818 ± 0.00059 and the refractive index ([2]; 308.15 K) was 1.44668 ± 0.00059. For the same molecule, the refractive index ([2]; 313.15 K) was 1.44524 ± 0.00058, the refractive index ([2]; 318.15 K) was 1.44379 ± 0.00058 and the refractive index ([2]; 323.15 K) was 1.44235 ± 0.00058. The refractive index ([2]; 328.15 K) was 1.4409 ± 0.00058 and the refractive index ([2]; 333.15 K) was 1.43946 ± 0.00058.
In the case of `CCCCCCCC[n+]1ccccc1.O=S(=O)([N-]S(=O)(=O)C(F)(F)F)C(F)(F)F` [1-octylpyridinium bis((trifluoromethyl)sulfonyl)amide], the viscosity ([1]; 293.15 K) is reported as 149.53 ± 3.9 mPa·s, the mass density ([1]; 293.15 K) is reported as 1331.3 ± 1.8 kg/m3 and the viscosity ([1]; 298.15 K) is reported as 114.34 ± 2.8 mPa·s. The mass density ([1]; 298.15 K) was 1326.8 ± 1.8 kg/m3, the viscosity ([1]; 303.15 K) was 88.74 ± 2.1 mPa·s and the mass density ([1]; 303.15 K) was 1322.5 ± 1.7 kg/m3. The viscosity ([1]; 308.15 K) was 70.13 ± 1.6 mPa·s, the mass density ([1]; 308.15 K) was 1318.2 ± 1.7 kg/m3 and the viscosity ([1]; 313.15 K) was 56.33 ± 1.3 mPa·s. It also gave a mass density ([1]; 313.15 K) of 1313.9 ± 1.7 kg/m3, a viscosity ([1]; 318.15 K) of 45.9 ± 1 mPa·s and a mass density ([1]; 318.15 K) of 1309.6 ± 1.7 kg/m3. It also gave a viscosity ([1]; 323.15 K) of 37.91 ± 0.86 mPa·s, a mass density ([1]; 323.15 K) of 1305.3 ± 1.7 kg/m3 and a viscosity ([1]; 328.15 K) of 31.7 ± 0.72 mPa·s. It also gave a mass density ([1]; 328.15 K) of 1301.1 ± 1.7 kg/m3, a viscosity ([1]; 333.15 K) of 26.8 ± 0.61 mPa·s and a mass density ([1]; 333.15 K) of 1296.8 ± 1.7 kg/m3. For the same molecule, the viscosity ([1]; 338.15 K) was 22.89 ± 0.52 mPa·s, the mass density ([1]; 338.15 K) was 1292.6 ± 1.7 kg/m3 and the viscosity ([1]; 343.15 K) was 19.73 ± 0.45 mPa·s. It also gave a mass density ([1]; 343.15 K) of 1288.3 ± 1.7 kg/m3, a viscosity ([1]; 348.15 K) of 17.15 ± 0.39 mPa·s and a mass density ([1]; 348.15 K) of 1284.1 ± 1.7 kg/m3. For the same molecule, the viscosity ([1]; 353.15 K) was 15.02 ± 0.34 mPa·s, the mass density ([1]; 353.15 K) was 1279.9 ± 1.7 kg/m3 and the refractive index ([2]; 293.15 K) was 1.4487 ± 0.00059. The refractive index ([2]; 298.15 K) was 1.44723 ± 0.00059, the refractive index ([2]; 303.15 K) was 1.44568 ± 0.00059 and the refractive index ([2]; 308.15 K) was 1.44413 ± 0.00059. It also gave a refractive index ([2]; 313.15 K) of 1.44262 ± 0.00059, a refractive index ([2]; 318.15 K) of 1.44115 ± 0.00058 and a refractive index ([2]; 323.15 K) of 1.43972 ± 0.00058. The refractive index ([2]; 328.15 K) was 1.43827 ± 0.00058 and the refractive index ([2]; 333.15 K) was 1.43681 ± 0.00058.

Reference: the NIST ThermoML archive (doi:10.1016/j.jct.2009.11.004)
